Laboratory results: publication PMC9738107, “Targeting of the ELR+CXCL/CXCR1/2 Pathway Is a Relevant Strategy for the Treatment of Paediatric Medulloblastomas” (Cells, 2022)

Assays:
[1] = tested on: Primary mouse astrocytes (C8D1A); test: IC50 on normal cells (XTT / cell death by PI staining); type: cell-based; settings: C8-D1A, 48 h of treatment
Text: We then determined the selectivity index (SI), which is the IC50 value for normal cells divided by the IC50 value for tumour cells, to assess the overall toxicity on normal tissues. These IC50 values determined by XTT assays or measurement of cell death by PI staining were nearly equivalent (Figure 3E,F). Primary mouse astrocytes (C8D1A) were selected based on their nervous system lineage. […] The SI was thus 6.44 for Daoy, 2.84 for ONS-76, 10.7 for HD-MB03, and 3.94 for D341Med, indicating selectivity towards tumour cell death at the doses considered. These values are also consistent with those determined for renal cancer cells. […]
1500 Daoy, ONS ‐76, HD ‐MB03 or D341 Med cells were sown in triplicate in plates with six wells and the cells were counted daily for 8 days using a Coulter counter (Ville‐ pinte). The relative number of cells (compared to day 1) was determined daily. […]
Y = Y0 * exp(k * X) (Y= Cell number at day X; Y0= Cell number at day 0 (graphically calculated); X= Day following cell plating (cells plated at X0=0); k= Exponential growth constant rate. Doubling times were compared.
150 Daoy/DR1/DR2/ ONS ‐ 76 and 300 HD ‐ MB03/HR1/HR2 cells were seeded in trip‐ licate in 6‐well plates in the presence or absence of treatment (1 or 2∙5μM MCK140 or DMSO as control). […] The number of clones was quantified using ImageJ software. […]

[2] = tested on: ERK and AKT phosphorylation in ONS-76 cells; test: Immunoblotting of p-ERK/p-AKT; type: cell-based, human; settings: ONS-76, 1 or 2.5 µM, 2 h or 24 h
Description: Figure 5 C29 inhibits signalling pathway that stimulates in cell proliferation and survival. (A–C). Daoy (A), HD-MB03 (B), and ONS-76 (C) cells were treated with C29 (1 or 2.5 μM) for 2 h (A–C) or 24 h (C), n = 3. The expression of p- ERK and p-AKT, relative to ERK and AKT, (respectively) was used to describe the relative activation of the pathways. ARD1 and HSP90 were used as loading controls. Statistics were performed using Student t-test for two comparisons only or ANOVA test for multiple comparisons. * p < 0.05, ** p < 0.01. […]
Protein extraction and immunoblotting
Cells were cultured to sub confluency and lysed in 60 mM Tris‐Cl pH 6∙8, 2% SDS, 10% glycerol, 5% β‐mercapto‐ethanol, 0∙01% bromophenol blue).
Lysates were sonicated for 25 seconds, and protein amount was determined by the Pierce™ BCA Protein Assay Kit assay (Thermo Fisher). Sample proteins were reduced by heating at 95 °C for 5 min. 30 μg of proteins were separated on 10% SDS‐polyacrylamide gels and transferred on PVDF membranes in Tris‐Glycine buffer (25 mM Tris, 192 mM glycine, pH 8∙3) + 20% ethanol (v:v). Membranes were blocked with 3% BSA, at room tem‐ perature for 1 h, then immunoblotted overnight with primary antibodies diluted in 3% BSA, at 4 °C. The following primary antibodies were used: AKT (CST, #9272S), phospho‐ […]
ARD1 (homemade polyclonal rabbit antibody). Membranes were incubated with HRP‐ conjugated secondary antibodies anti‐rabbit IgG 1/5000e (Promega), at room temperature, for 1h30. After washing, the Advansta WesternBright Quantum HRP substrate (Diagom‐ ics, Blagnac, France) was used as detection reagent.

Daoy cells = test: Pseudo-vessel formation on Matrigel; type: cell-based, human
Description: (§1) Figure 6 C29 inhibits the formation of pseudo vessel structures. (A) Formation of pseudo-vessels by Daoy cells, ONS-76, and HD-MB03 cultured on Matrigel and treated with Control (DMSO) or C29 (1 or 2.5 µM); n = 3. (B) Number of meshes (geometric units of the net formed by the cells on the matrigel surface) were counted with ImageJ. Statistics were performed using Student t-test for only 2 comparisons or ANOVA test for multiple comparisons. *** p < 0.001, scale = 500 μm. […]
(§2) Pseudo‐vessels formation assays
(§3) The cells were deprived of serum overnight. They were then seeded (75000 Daoy
(§4) with Matrigel Matrix, hESC‐Qualified (VWR). Plates were then incubated at 37 °C, 5%
(§5) CO2 for 24 hours. Representative images were taken with the Evos XL Core Cell Imaging
(§6) System at low magnification (4X). For each image, we determined the number of meshes
(§7) (number of geometric units of the net formed by the cells seeded on the matrigel surface). […]

HD-MB03 cells = test: Pseudo-vessel formation on Matrigel; type: cell-based, human; settings: HD-MB03, 1 µM
Description: as §1, §2, §3, §4, §5, §6, §7

ONS-76 cells = test: Pseudo-vessel formation on Matrigel; type: cell-based, human
Description: as §1, §2, §3, §4, §5, §6, §7

Q: Which results are given for O=C(Nc1cccc(Cl)c1)Nc1nc2ccc([N+](=O)[O-])cc2s1 [C29, 1-(3-chlorophenyl)-3-(6-nitrobenzo[d]thiazol-2-yl) urea]?
A: IC50 [1]: 19.3 µM; AKT phosphorylation [2]: inhibited; ERK phosphorylation [2]: inhibited; Pseudo-vasculature formation (Daoy cells; 1 µM): inhibited this ability; Pseudo-vasculature formation (Daoy cells; 2.5 µM): inhibited this ability; Number of meshes (pseudo-vessels) (HD-MB03 cells): significantly reduced the number of meshes; Pseudo-vasculature formation (ONS-76 cells; ONS-76, 1 µM): some vascular structures were retained; Pseudo-vasculature formation (ONS-76 cells; ONS-76, 2.5 µM): completely lost this ability
